Data: patent publication US8952024B2, “Herbicidal pyrimidone derivatives” (E I du Pont de Nemours and Company, priority 2009, dated 2015)
Where two headings read alike, the source gives them in different places.

Legend:
Assay in all cases: Test B pre-/postemergence plant response
Assay type in all cases: in vivo
[1] = test system: yellow nutsedge (Cyperus esculentus)
Summary of the method: (§1)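 Response scores were assigned visually after 13 to 15 days in a greenhouse, comparing treated pots with controls on a 0–100 scale where 100 denotes complete control. Preemergence treatments went onto freshly seeded loam/sand soil; postemergence treatments onto plants 2 to 18 cm tall.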

[2] = test system: large crabgrass (Digitaria sanguinalis); conditions: for pest or weed control at 31 g/ha: 31 g ai/ha, scale 0 to 100 (0 no effect, 100 complete control); for pest or weed control at 62 g/ha: 62 g ai/ha
Summary of the method: as §1

wild oat (Avena fatua) = test system: wild oat (Avena fatua)
Summary of the method: as §1

[3] = test system: bermudagrass (Cynodon dactylon); conditions: for pest or weed control at 31 g/ha: 31 g ai/ha, scale 0 to 100 (0 no effect, 100 complete control)
Summary of the method: as §1

[4] = test system: johnsongrass (Sorghum halepense)
Summary of the method: as §1

[5] = test system: woolly cupgrass (Eriochloa villosa); conditions: for pest or weed control at 31 g/ha: 31 g ai/ha, scale 0 to 100 (0 no effect, 100 complete control); for pest or weed control at 62 g/ha: 62 g ai/ha
Summary of the method: as §1

[6] = test system: ragweed (common ragweed, Ambrosia elatior)
Summary of the method: as §1

[7] = test system: Italian ryegrass (Lolium multiflorum)
Summary of the method: as §1

[8] = test system: blackgrass (Alopecurus myosuroides); conditions: Alopecurus myosuroides, post-emergence, 360 h; Postemergence, 31 g ai/ha; scale 0 to 100 (0 no effect, 100 complete control); read-out: Plant response rating, Blackgrass
Summary of the method: as §1

[9] = Preemergence, 125 g ai/ha, 0 to 100 scale
[10] = Postemergence, 250 g ai/ha, scale 0 to 100

For `Cc1c(F)cccc1-n1c(-c2ccccc2)ncc(C(=O)C2=C(O)CCCC2=O)c1=O` [Compound 47, 3-(3-fluoro-2-methylphenyl)-5-[(2-hydroxy-6-oxo-1-cyclohexen-1-yl)carbonyl]-2-phenyl-4(3H)-pyrimidinone], the pest or weed control at 62 g/ha ([1]; Cyperus, post-emergence, Postemergence, 62 g ai/ha, scale 0 (no effect) to 100 (complete control), 13 to 15 days, read-out: Plant response rating, Nutsedge, Yellow) was 65%, the pest or weed control at 125 g/ha ([1]; Cyperus, post-emergence, Postemergence, 125 g ai/ha, visual rating after 13 to 15 days, scale 0 (no effect) to 100 (complete control)) was 70% and the pest or weed control at 250 g/ha ([1]; Cyperus, pre-emergence, 250 g ai/ha, Preemergence, 0 to 100 scale, read-out: Plant response rating, Nutsedge, Yellow) was 90%. The pest or weed control at 31 g/ha ([1]; Cyperus, pre-emergence, Preemergence, 31 g ai/ha, scale 0 to 100 (0 no effect, 100 complete control), read-out: Plant response rating, Nutsedge, Yellow) was 45%, the “Nutsedge, Yellow plant response rating” value [1, 9] was 80 and the pest or weed control at 31 g/ha ([2]; Digitaria sanguinalis, post-emergence, Postemergence, read-out: Plant response rating, Crabgrass, Large) was 85%. The pest or weed control at 62 g/ha ([2]; Digitaria sanguinalis, post-emergence, Postemergence, scale 0 (no effect) to 100 (complete control), 13 to 15 days, read-out: Plant response rating, Crabgrass, Large) was 85%, the pest or weed control at 125 g/ha ([2]; Digitaria sanguinalis, post-emergence, Postemergence, 125 g ai/ha, visual rating after 13 to 15 days, scale 0 (no effect) to 100 (complete control)) was 90% and the pest or weed control at 250 g/ha ([2]; Digitaria sanguinalis, pre-emergence, 250 g ai/ha, Preemergence, 0 to 100 scale, read-out: Plant response rating, Crabgrass, Large) was 100%. The pest or weed control at 31 g/ha ([2]; Digitaria sanguinalis, pre-emergence, Preemergence, read-out: Plant response rating, Crabgrass, Large) was 75%, the pest or weed control at 62 g/ha ([2]; Digitaria sanguinalis, pre-emergence, Preemergence, scale 0 to 100, 0 no effect, 100 complete control, read-out: Plant response rating, Crabgrass, Large) was 95% and the “Crabgrass, Large plant response rating” value [2, 10] was 100. For the same compound, the “Crabgrass, Large plant response rating” value [2, 9] was 100, the pest or weed control at 62 g/ha (wild oat (Avena fatua); Avena fatua, post-emergence, Postemergence, 62 g ai/ha, scale 0 (no effect) to 100 (complete control), 13 to 15 days, read-out: Plant response rating, Oat, Wild) was 60% and the pest or weed control at 125 g/ha (wild oat (Avena fatua); Avena fatua, post-emergence, Postemergence, 125 g ai/ha, visual rating after 13 to 15 days, scale 0 (no effect) to 100 (complete control)) was 60%. For the same compound, the pest or weed control at 250 g/ha (wild oat (Avena fatua); Avena fatua, pre-emergence, 250 g ai/ha, Preemergence, 0 to 100 scale, read-out: Plant response rating, Oat, Wild) was 10%, the pest or weed control at 31 g/ha (wild oat (Avena fatua); Avena fatua, pre-emergence, Preemergence, 31 g ai/ha, scale 0 to 100 (0 no effect, 100 complete control), read-out: Plant response rating, Oat, Wild) was 0% and the “Oat, Wild plant response rating” value (wild oat (Avena fatua); [9]) was 0. It also gave a pest or weed control at 31 g/ha ([3]; Cynodon dactylon, post-emergence, Postemergence, read-out: Plant response rating, Bermudagrass) of 85%, a pest or weed control at 125 g/ha ([3]; Cynodon dactylon, post-emergence, Postemergence, 125 g ai/ha, visual rating after 13 to 15 days, scale 0 (no effect) to 100 (complete control)) of 98% and a pest or weed control at 250 g/ha ([3]; Cynodon dactylon, pre-emergence, 250 g ai/ha, Preemergence, 0 to 100 scale, read-out: Plant response rating, Bermudagrass) of 100%. For the same compound, the pest or weed control at 31 g/ha ([3]; Cynodon dactylon, pre-emergence, Preemergence, read-out: Plant response rating, Bermudagrass) was 100%, the pest or weed control at 62 g/ha ([3]; Cynodon dactylon, pre-emergence, Preemergence, 62 g ai/ha, scale 0 to 100, 0 no effect, 100 complete control, read-out: Plant response rating, Bermudagrass) was 100% and the “Bermudagrass plant response rating” value [3, 9] was 100. The “Johnsongrass plant response rating” value [4, 9] was 80, the pest or weed control at 125 g/ha ([4]; Sorghum halepense, post-emergence, Postemergence, 125 g ai/ha, visual rating after 13 to 15 days, scale 0 (no effect) to 100 (complete control)) was 98% and the pest or weed control at 250 g/ha ([4]; Sorghum halepense, pre-emergence, 250 g ai/ha, Preemergence, 0 to 100 scale, read-out: Plant response rating, Johnsongrass) was 100%. The pest or weed control at 31 g/ha ([4]; Sorghum halepense, pre-emergence, Preemergence, 31 g ai/ha, scale 0 to 100 (0 no effect, 100 complete control), read-out: Plant response rating, Johnsongrass) was 65%, the pest or weed control at 62 g/ha ([4]; Sorghum halepense, pre-emergence, Preemergence, 62 g ai/ha, scale 0 to 100, 0 no effect, 100 complete control, read-out: Plant response rating, Johnsongrass) was 75% and the pest or weed control at 31 g/ha ([5]; Eriochloa villosa, post-emergence, Postemergence, read-out: Plant response rating, Cupgrass, Woolly) was 85%. It also gave a pest or weed control at 62 g/ha ([5]; Eriochloa villosa, post-emergence, Postemergence, scale 0 (no effect) to 100 (complete control), 13 to 15 days, read-out: Plant response rating, Cupgrass, Woolly) of 90%, a pest or weed control at 125 g/ha ([5]; Eriochloa villosa, post-emergence, Postemergence, 125 g ai/ha, visual rating after 13 to 15 days, scale 0 (no effect) to 100 (complete control)) of 90% and a pest or weed control at 250 g/ha ([5]; Eriochloa villosa, pre-emergence, 250 g ai/ha, Preemergence, 0 to 100 scale, read-out: Plant response rating, Cupgrass, Woolly) of 90%. For the same compound, the pest or weed control at 31 g/ha ([5]; Eriochloa villosa, pre-emergence, Preemergence, read-out: Plant response rating, Cupgrass, Woolly) was 0%, the pest or weed control at 62 g/ha ([5]; Eriochloa villosa, pre-emergence, Preemergence, scale 0 to 100, 0 no effect, 100 complete control, read-out: Plant response rating, Cupgrass, Woolly) was 45% and the “Cupgrass, Woolly plant response rating” value [5, 10] was 100. The “Cupgrass, Woolly plant response rating” value [5, 9] was 75, the pest or weed control at 62 g/ha ([6]; Ambrosia artemisiifolia, post-emergence, 360 h, Postemergence, 62 g ai/ha, scale 0 (no effect) to 100 (complete control), 13 to 15 days, read-out: Plant response rating, Ragweed) was 90% and the pest or weed control at 125 g/ha ([6]; Ambrosia artemisiifolia, post-emergence, 360 h, Postemergence, 125 g ai/ha, visual rating after 13 to 15 days, scale 0 (no effect) to 100 (complete control)) was 95%. The pest or weed control at 250 g/ha ([6]; Ambrosia artemisiifolia, pre-emergence, 360 h, 250 g ai/ha, Preemergence, 0 to 100 scale, read-out: Plant response rating, Ragweed) was 95%, the pest or weed control at 31 g/ha ([6]; Ambrosia artemisiifolia, pre-emergence, 360 h, Preemergence, 31 g ai/ha, scale 0 to 100 (0 no effect, 100 complete control), read-out: Plant response rating, Ragweed) was 45% and the “Ragweed plant response rating” value [6, 9] was 90. The pest or weed control at 62 g/ha ([7]; Lolium multiflorum, post-emergence, Postemergence, 62 g ai/ha, scale 0 (no effect) to 100 (complete control), 13 to 15 days, read-out: Plant response rating, Ryegrass, Italian) was 30%, the pest or weed control at 125 g/ha ([7]; Lolium multiflorum, post-emergence, Postemergence, 125 g ai/ha, visual rating after 13 to 15 days, scale 0 (no effect) to 100 (complete control)) was 30% and the pest or weed control at 250 g/ha ([7]; Lolium multiflorum, pre-emergence, 250 g ai/ha, Preemergence, 0 to 100 scale, read-out: Plant response rating, Ryegrass, Italian) was 0%. For the same compound, the pest or weed control at 31 g/ha ([7]; Lolium multiflorum, pre-emergence, Preemergence, 31 g ai/ha, scale 0 to 100 (0 no effect, 100 complete control), read-out: Plant response rating, Ryegrass, Italian) was 0%, the “Ryegrass, Italian plant response rating” value [7, 9] was 0 and the pest or weed control at 31 g/ha [8] was 5%.
